# Patent US20030190671A1, “Use of metabolic phenotyping in individualized treatment with amonafide” (McGill University, priority 2001, published 2003)
# Read-outs that look alike come from different tables or passages of the source. Marks after values point to notes of the source that are not given here.
# Experiments:
# CYP2D6 = conditions: cited from earlier work
# CYP1A2 = target: T1, CYP1A2 (Homo sapiens, UniProt P05177); conditions: in vitro; cited from earlier work
# T1 sequence (P05177 1-516): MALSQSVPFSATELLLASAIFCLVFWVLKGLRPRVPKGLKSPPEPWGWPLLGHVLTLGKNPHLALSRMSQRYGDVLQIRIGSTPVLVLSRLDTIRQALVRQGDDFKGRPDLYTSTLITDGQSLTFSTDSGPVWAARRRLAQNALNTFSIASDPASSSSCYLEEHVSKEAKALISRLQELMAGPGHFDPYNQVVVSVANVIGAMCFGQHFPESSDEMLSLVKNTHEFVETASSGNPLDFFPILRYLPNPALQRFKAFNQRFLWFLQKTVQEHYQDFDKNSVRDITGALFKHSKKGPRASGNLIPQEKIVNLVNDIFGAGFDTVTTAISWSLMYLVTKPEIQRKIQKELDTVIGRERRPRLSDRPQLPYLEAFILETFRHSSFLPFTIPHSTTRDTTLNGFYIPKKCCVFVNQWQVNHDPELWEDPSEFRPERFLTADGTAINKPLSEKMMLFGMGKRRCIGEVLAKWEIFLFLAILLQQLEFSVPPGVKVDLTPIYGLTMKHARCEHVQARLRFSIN
# [1] = Felder et al.; cited from earlier work
# Caffeine-Ab = assay: Competitive antigen ELISA, antibody specificity of caffeine-Ab; assay type: binding, rabbit; conditions: hypothesized ideal antibody specificity; 0 = no inhibition or no higher than 40% at 5×10^−3 M
# Method: (§1) Competitive Antigen ELISA
# (§2) BSA, antibodies, Tween™ 20 and horse radish peroxidase are added to buffers and water just prior to use. Urine samples are usually collected four hours after drinking a cup of coffee (instant or brewed with approximately 100 mg of caffeine per cup) and stored at −20° C. as 1-mL aliquots in 1.5-mL microtubes. For the ELISA, the urine samples are diluted with isotonic sodium phosphate buffer, pH 7.5 (310 mosM) to give concentrations of caffeine, 1.7-DMX and 1,7-DMU no higher than 3×10^−6 M in the microtiter plate wells. Wells of the ELISA plate are washed with a Nunc-Immuno wash 12 washer. Sixteen milliliters of a solution of 6.6 μg ml^−1 of isolated IgG antibodies is prepared in a 100 mM sodium carbonate buffer, pH 9.6, and 150 μL of this solution is pipetted in each well of a microtiter plate using a eight channel pipet (Brinkmann Transferpette™-8 50-200 μL) and 200 μL Flex tips from Brinkmann). After coating the wells with antibodies at 4° C. for 20 hours, the wells are washed 3 times with the isotonic sodium phosphate buffer containing 0.05% Tween™ 20 (IPBT) and properly drained by inverting the plate and absorbing the liquid on to a piece of paper towel. Thirty milliliters of a solution of a IPBT solution containing 1% BSA is prepared and 150 μL of this solution is pipetted in each well using a eight channel pipet (Brinkmann Transferpet-te™-8 50-200 μL) and 200 μL yellow tips (Sarstedt yellow tips for P200 Gilson Pipetman). After 3 hours at room temperature, the wells are washed 3 times with IPBT solution and drained. Samples of 400 μL for determination of caffeine, 1,7-DMX and 1,7-DMU are prepared in 1.5-mL microtubes using Sarstedt yellow tips and a P200 Gilson Pipetman. Then, 200 μL of each sample are pipetted in duplicate in a Falcon 96-well microtest tissue culture plate according to the pattern shown in FIG. 23, using Sarstedt yellow tips and a P200 Gilson Pipetman. Using an eight channel pipet (Brinkmann Transferpette™-8 50-200 μL) and changing the tips of the eight channel pipet (200 μL Flex tips from Brinkmann) at each row, 150 μL of samples are transferred in the corresponding wells of a 96-well ELISA microtiter plate coated with antibodies. After the addition of the samples, the microtiter plates are covered and left standing at room temperature for 2 h. While the plate is left standing the substrate buffer without the hydrogen peroxide and o-phenylenediamine hydrochloride is prepared (25 mM citric acid and 50 mM sodium phosphate dibasic buffer, pH 5.0). The microtiter plate is washed 3 times with the IPBT solution and 3 times with a 0.05% Tween 20 solution and drained. Then, 50 […] of hydrogen peroxide and 40 mg of o-phenylenediamine are added to the substrate buffer. One hundred fifty microliters (150 μL) of the substrate buffer solution is then added to each well using a eight channel pipet (Brinkmann Transferpette™-8 50-200 μL) and 200 μL Flex tips (Brinkmann). The microtiter plate is covered and shaken for 25-30 min at room temperature and the enzymatic reaction is stopped by adding 50 μL/well of a 2.5 N HCl solution using an eight channel pipet (Brinkmann Transferpette™-8 50-200 μL) and 200 μL Flex tips (Brinkmann).
# 1,7-DMU-Ab = assay: Competitive antigen ELISA, antibody specificity of 1,7-DMU-Ab; assay type: binding, rabbit; conditions: hypothesized ideal antibody specificity; 0 = no inhibition or no higher than 40% at 5×10^−3 M
# Method: as §1, §2
# 1,7-DMX-Ab = assay: Competitive antigen ELISA, antibody specificity of 1,7-DMX-Ab; assay type: binding, rabbit; conditions: hypothesized ideal antibody specificity; 0 = no inhibition or no higher than 40% at 5×10^−3 M
# Method: as §1, §2
# 1X-Ab = assay: Competitive antigen ELISA, cross-reactivity of 1X-Ab; assay type: binding, rabbit; conditions: competitive antigen ELISA; 0 = absence of inhibition or inhibition no higher than 40% at the highest concentration tested (5×10^−3 M)
# Method: as §1
# (§3) Buffers and water without additives are filtered through millipore filters and kept for 1 week. BSA, antibodies, Tween™ 20 and horse radish peroxidase conjugates are added to these buffers and water just prior to use. Urine samples are usually collected 4 hours after drinking a cup of coffee (instant or brewed with approximately 100 mg of caffeine per cup) and stored at −80° C. The urine samples are diluted 10 times with sodium phosphate buffer (620 mosm, pH 7.50) and are subsequently diluted with water to give concentrations of AAMU and 1X no higher than 3×10^−6 M in the ELISA. All the pipettings are done with an eight-channel pipette, except those of the antibody and sample solutions. Starting with the last well, 100 μL of a carbonate buffer (100 mM, pH 9.6) containing 2.5 μg mL-1 antibodies are added to each well. After 90 min. at room temperature, the wells are washed three times with 100 mL of TPB: isotonic sodium phosphate buffer (310 mosm, pH 7.50) containing 0.05% Tween™ 20.
# (§4) After the initial wash, unoccupied sites are blocked by incubation for 90 min. at room temperature with 100 μL TBP containing 3% BSA. The wells are washed four times with 100 […] TPB. […] The microplate is gently shaken with an orbital shaker at room temperature for 3-4 hours. The wells are washed three times with 100 μL TPB containing 1% BSA and three times with water containing 0.05% Tween™ 20. To the washed plate is added 150 μL of a substrate buffer composed of citric acid (25 mM) and sodium phosphate dibasic buffer (50 mM, pH 5.0) containing 0.06% hydrogen peroxide and 0.04% o-phenylenediamine hydrochloride.
# as §3, with “were” for “are”, “They were” for “The urine samples are”, “mL^−1” for “mL-1”, “was pipetted.” for “are added to each well.”, “μL” for “mL”
# (§5) After the initial wash, unoccupied sites were blocked by incubation for 90 min. at room temperature with 100 μL TBP containing 3% BSA. The wells were washed four times with 100 μL TPB. […] The microplate was gently shaken with an orbital shaker at room temperature for 3-4 hours. The wells were washed three times with 100 μL with TPB containing 1% BSA and three times with water containing 0.05% Tween™ 20. To the washed plate was added 150 μL of a substrate buffer composed of citric acid (25 mM) and sodium phosphate dibasic buffer (50 mM, pH 5.0) containing 0.06% hydrogen peroxide and 0.04% o-phenylenediamine hydrochloride. After 20 min. at room temperature with shaking, the reaction was stopped with 50 μL of 2.5 N HCl.
# (§6) The cross reactivities of AAMU-Ab and 1X-Ab were tested using a wide variety of caffeine metabolites and structural analogs (Table 2 below).
# AAMU-Ab = assay: Competitive antigen ELISA, cross-reactivity of AAMU-Ab; assay type: binding, rabbit; conditions: competitive antigen ELISA; 0 = absence of inhibition or inhibition no higher than 40% at the highest concentration tested (5×10^−3 M)
# Method: as §1, §3, §4
# as §3, with “were” for “are”, “They were” for “The urine samples are”, “mL^−1” for “mL-1”, “was pipetted.” for “are added to each well.”, “μL” for “mL”
# as §5, §6
# [2] = cited from earlier work
# NAT2 = conditions: cancer individuals phenotyped with caffeine; cited from earlier work
# B16 melanoma = conditions: cited from earlier work
# [3] = mice, dogs, and rats; cited from earlier work
# M5076 sarcoma cell line = conditions: cited from earlier work
# [4] = dogs; single-bolus and daily for 5 days schedules, highest doses administered; cited from earlier work
# [5] = system: p388 leukemia cells lines; conditions: cited from earlier work
# [6] = Stability of reconstituted amonafide solution; assay type: physicochemical
# Method: Intact vials should be stored under refrigeration (2-8° C.). […] However, the reconstituted solution contains no antibacterial preservatives and should be used immediately. It is advised that the reconstituted product be discarded 8 hours after initial entry.
# Add the appropriate dose of amonafide to a bag of 100 mL of normal saline prior to administration. Amonafide is very unstable in dextrose-containing solutions and these should not be used for reconstitution or for administration.
# [7] = human; cited from earlier work
# [8] = system: L1210 leukemia cells lines; conditions: cited from earlier work
# [9] = system: non-small cell lung cancer, prostate cancer and breast cancer; conditions: cited from earlier work
# [10] = cited from earlier work; remark: listed apart in the source
structure (smiles),measurement,setting,value
COc1ccc2c(c1)[C@]13CCCC[C@@H]1[C@H](C2)N(C)CC3 [Dextromethorphan],mean performance +/−SE,"CYP2D6; extensive metabolizers (EMs), p<0.05 vs PMs",95+/−0.5%
same,mean performance +/−SE,"CYP2D6; poor metabolizers (PMs), p<0.05 vs EMs",86+/−6%
CC(=O)Nc1cc2c3c(cccc3c1)C(=O)N(CCN(C)C)C2=O [N-acetyl-amonafide],effect on amonafide oxidation (CYP1A2),CYP1A2,inhibition of amonafide oxidation
same,potency relative to the parent drug amonafide,[1],approximately equipotent to the parent drug
C[N+](C)([O-])CCN1C(=O)c2cccc3cc(N)cc(c23)C1=O [N-oxide-amonafide],potency relative to the parent drug amonafide,[1],essentially inactive
O=c1[nH]c(=O)c2[nH]c(=O)[nH]c2[nH]1 [Uric acid],% Cross-reaction Caffeine-Ab,Caffeine-Ab,0%
same,"% Cross-reaction 1,7-DMU-Ab","1,7-DMU-Ab",0%
same,"% Cross-reaction 1,7-DMX-Ab","1,7-DMX-Ab",0%
same,% Cross-Reaction 1X-Ab,1X-Ab,0%
same,% Cross-Reaction AAMU-Ab,AAMU-Ab,0%
O=c1[nH]c(=O)c2[nH]cnc2[nH]1 [Xanthine],% Cross-reaction Caffeine-Ab,Caffeine-Ab,0%
same,"% Cross-reaction 1,7-DMU-Ab","1,7-DMU-Ab",0%
same,"% Cross-reaction 1,7-DMX-Ab","1,7-DMX-Ab",0%
same,% Cross-Reaction 1X-Ab,1X-Ab,0%
same,% Cross-Reaction AAMU-Ab,AAMU-Ab,0^a %
CN(C)CCN1C(=O)c2cccc3cc(N)cc(c23)C1=O [amonafide],substrate of CYP1A2,CYP1A2,substrate for CYP1A2
same,maximum tolerated dose (MTD),"[2]; bolus dose, OSU study (Leiby et al.)",1125 mg/m^2
same,maximum tolerated dose (MTD),"[2]; daily times five every 21 days, MDA (Legha et al.)",400 mg/m^2
same,maximum tolerated dose (MTD),"[2]; daily times five every 21 days, OSU (Leiby et al.)",250 mg/m^2
same,dose-limiting toxicity,[2]; single bolus and daily times five schedules,myelosuppression
same,maximum tolerated dose (MTD),"[2]; single bolus, UTSA (Saez et al.)",800 mg/m^2
same,"area under the plasma concentration-time curve, fast vs. slow acetylators",NAT2,significantly greater in fast acetylators
same,"toxicity (myelosuppression), fast vs. slow acetylators",NAT2,fast acetylators had greater toxicity than slow acetylators
same,activity against B16 melanoma,B16 melanoma,significant activity
same,preclinical toxicity,[3],"reversible hematopoietic, gastrointestinal, renal and hepatic toxicity"
same,activity against M5076 sarcoma,M5076 sarcoma cell line,significant activity
same,neurotoxicity,[4],signs indicative of neurotoxicity
same,activity against p388 leukemia,[5],significant activity
same,stability in dextrose-containing solutions,[6],very unstable
same,decomposition of reconstituted solution,"[6]; reconstituted in normal saline, over 14 days at room temperature or under refrigeration",no decomposition
same,binding to body tissues,[7],highly bound to body tissues
same,volume of distribution,[7],large
same,activity against L1210 leukemia,[8],significant activity
same,"antitumor activity in non-small cell lung cancer, prostate cancer and breast cancer","[9]; human, in vivo",antitumor activity
same,most common dose-limiting side effect,"[9]; human, in vivo",granulocytopenia
same,"neutropenia, day of nadir counts",[9]; previous clinical studies,12 to 15 days
same,"neutropenia, day of recovery",[9]; previous clinical studies,~21 days
Nc1ccc(S(=O)(=O)c2ccc(N)cc2)cc1 [dapsone],adverse reactions,[10]; fast acetylators,17%
same,adverse reactions,[10]; slow acetylators,46%
